From PMC5218480 (PLoS ONE, 2017)

System: MV-4-11 cells
Assay: Gene expression microarray analysis (Affymetrix PrimeView) and GSEA
Type: cell-based, human
Set-up: RFU PODN (11730768_x_at) / Fold change /veh PODN (11730768_x_at) / RFU LINC00158 (11744669_a_at) / Fold change /veh LINC00158 (11744669_a_at) / RFU DUSP10 (11751237_a_at) / Fold change /veh DUSP10 (11751237_a_at) / RFU ID3 (11757404_x_at) / Fold change /veh ID3 (11757404_x_at) / RFU PLEKHG5 (11737974_s_at) / Fold change /veh PLEKHG5 (11737974_s_at) / RFU LRRC4B (11730491_at) / Fold change /veh LRRC4B (11730491_at) / RFU GIMAP4 (11747438_a_at) / Fold change /veh GIMAP4 (11747438_a_at) / RFU KRT8 (11758183_x_at) / Fold change /veh KRT8 (11758183_x_at) / RFU CNN1 (11734310_a_at) / Fold change /veh CNN1 (11734310_a_at) / RFU VPS37D (11726825_at) / Fold change /veh VPS37D (11726825_at) / RFU C10orf10 (11716522_x_at) / Fold change /veh C10orf10 (11716522_x_at) / RFU KIR2DL2 /// KIR2DL4 /// KIR2DL5A /// KIR2DL5B /// KIR2DS1 /// KIR2DS2 /// KIR2DS3 /// KIR2DS4 /// KIR3DL3 /// KIR3DL3 /// KIR3DS1 (11738374_at) / Fold change /veh KIR2DL2 /// KIR2DL4 /// KIR2DL5A /// KIR2DL5B /// KIR2DS1 /// KIR2DS2 /// KIR2DS3 /// KIR2DS4 /// KIR3DL3 /// KIR3DL3 /// KIR3DS1 (11738374_at) / RFU C1QL1 (11718748_at) / Fold change /veh C1QL1 (11718748_at) / RFU TMPRSS4 (11747572_a_at) / Fold change /veh TMPRSS4 (11747572_a_at) / RFU HAMP (11756126_x_at) / Fold change /veh HAMP (11756126_x_at) / RFU RNFT2 (11725882_a_at) / Fold change /veh RNFT2 (11725882_a_at) / RFU NR4A2 (11747474_a_at) / Fold change /veh NR4A2 (11747474_a_at) / RFU ABCC12 (11746883_a_at) / Fold change /veh ABCC12 (11746883_a_at) / RFU TMEM136 (11760407_x_at) / Fold change /veh TMEM136 (11760407_x_at) / RFU CLDN22 /// WWC2 (11732394_at) / Fold change /veh CLDN22 /// WWC2 (11732394_at) / RFU HLA-DPB1 (11760878_x_at) / Fold change /veh HLA-DPB1 (11760878_x_at) / RFU SPINT1 (11716480_a_at) / Fold change /veh SPINT1 (11716480_a_at) / RFU GAP43 (11754022_s_at) / Fold change /veh GAP43 (11754022_s_at) / RFU A4GNT (11735810_at) / Fold change /veh A4GNT (11735810_at) / RFU PRB3 (11715151_x_at) / Fold change /veh PRB3 (11715151_x_at) / RFU TUBB4B (11761932_at) / Fold change /veh TUBB4B (11761932_at) / RFU CAPN14 (11732068_a_at) / Fold change /veh CAPN14 (11732068_a_at) / RFU TMCC2 (11721928_a_at) / Fold change /veh TMCC2 (11721928_a_at) / RFU IRGQ (11745062_a_at) / Fold change /veh IRGQ (11745062_a_at) / RFU FAM174B (11720279_a_at) / Fold change /veh FAM174B (11720279_a_at) / RFU TMPRSS4 (11748680_a_at) / Fold change /veh TMPRSS4 (11748680_a_at) / RFU FAM212B (11763350_a_at) / Fold change /veh FAM212B (11763350_a_at) / RFU PLEKHG5 (11743358_a_at) / Fold change /veh PLEKHG5 (11743358_a_at) / RFU ZSCAN30 (11745921_a_at) / Fold change /veh ZSCAN30 (11745921_a_at) / RFU CMKLR1 (11741424_a_at) / Fold change /veh CMKLR1 (11741424_a_at) / RFU LOC101060620 /// MAPK8IP1 (11723275_at) / Fold change /veh LOC101060620 /// MAPK8IP1 (11723275_at) / RFU SPTSSB (11747773_x_at) / Fold change /veh SPTSSB (11747773_x_at) / RFU PRSS12 (11739890_at) / Fold change /veh PRSS12 (11739890_at) / RFU BIN1 (11741810_x_at) / Fold change /veh BIN1 (11741810_x_at) / RFU WNT11 (11732464_a_at) / Fold change /veh WNT11 (11732464_a_at) / RFU C10orf10 (11716521_a_at) / Fold change /veh C10orf10 (11716521_a_at) / RFU C5orf56 (11738089_at) / Fold change /veh C5orf56 (11738089_at) / RFU CYB561 (11721691_x_at) / Fold change /veh CYB561 (11721691_x_at) / RFU ANKRD19P (11752326_a_at) / Fold change /veh ANKRD19P (11752326_a_at) / RFU OR2T12 /// OR2T33 /// OR2T8 (11738714_s_at) / Fold change /veh OR2T12 /// OR2T33 /// OR2T8 (11738714_s_at) / RFU VCAN (11748164_a_at) / Fold change /veh VCAN (11748164_a_at) / RFU JSRP1 (11732532_at) / Fold change /veh JSRP1 (11732532_at) / RFU KRTAP10-11 (11738290_x_at) / Fold change /veh KRTAP10-11 (11738290_x_at) / RFU MYO3A (11730013_a_at) / Fold change /veh MYO3A (11730013_a_at) / RFU EBF3 (11725865_a_at) / Fold change /veh EBF3 (11725865_a_at) / RFU CAMK2N1 (11719241_x_at) / Fold change /veh CAMK2N1 (11719241_x_at) / RFU C5orf56 (11738088_a_at) / Fold change /veh C5orf56 (11738088_a_at) / RFU OLFML3 (11715873_a_at) / Fold change /veh OLFML3 (11715873_a_at) / RFU LOC100653217 /// NTM (11731650_a_at) / Fold change /veh LOC100653217 /// NTM (11731650_a_at) / RFU MAPK11 (11762145_a_at) / Fold change /veh MAPK11 (11762145_a_at) / RFU FIZ1 (11724087_x_at) / Fold change /veh FIZ1 (11724087_x_at) / RFU OASL (11726364_x_at) / Fold change /veh OASL (11726364_x_at) / RFU SOX15 (11748057_x_at) / Fold change /veh SOX15 (11748057_x_at) / RFU CD79A (11719716_a_at) / Fold change /veh CD79A (11719716_a_at) / RFU HIST1H1D (11736915_at) / Fold change /veh HIST1H1D (11736915_at) / RFU CASKIN2 (11723855_a_at) / Fold change /veh CASKIN2 (11723855_a_at) / RFU LOC730098 (11760151_x_at) / Fold change /veh LOC730098 (11760151_x_at) / RFU OR4N2 (11742367_at) / Fold change /veh OR4N2 (11742367_at) / RFU PRRT2 (11749266_a_at) / Fold change /veh PRRT2 (11749266_a_at) / RFU SNX32 (11753110_a_at) / Fold change /veh SNX32 (11753110_a_at) / RFU CDHR5 (11726645_a_at) / Fold change /veh CDHR5 (11726645_a_at) / RFU RCAN1 (11760418_a_at) / Fold change /veh RCAN1 (11760418_a_at) / RFU FAM167A (11723789_a_at) / Fold change /veh FAM167A (11723789_a_at) / RFU FAM26E (11764081_at) / Fold change /veh FAM26E (11764081_at) / RFU ISYNA1 (11749810_s_at) / Fold change /veh ISYNA1 (11749810_s_at) / RFU ACY1 (11761880_at) / Fold change /veh ACY1 (11761880_at) / RFU 11764098_at / Fold change /veh 11764098_at / RFU SAMD14 (11745864_x_at) / Fold change /veh SAMD14 (11745864_x_at) / RFU NPB (11741838_a_at) / Fold change /veh NPB (11741838_a_at) / RFU TMPRSS6 (11731388_a_at) / Fold change /veh TMPRSS6 (11731388_a_at) / RFU KRTAP10-2 (11738614_at) / Fold change /veh KRTAP10-2 (11738614_at) / RFU ARHGAP8 /// PRR5-ARHGAP8 (11727945_x_at) / Fold change /veh ARHGAP8 /// PRR5-ARHGAP8 (11727945_x_at) / RFU KRTAP5-7 /// NADSYN1 (11734609_at) / Fold change /veh KRTAP5-7 /// NADSYN1 (11734609_at) / RFU RASL12 (11751679_a_at) / Fold change /veh RASL12 (11751679_a_at) / RFU CDKN2B (11736163_a_at) / Fold change /veh CDKN2B (11736163_a_at) / RFU PRF1 (11729649_at) / Fold change /veh PRF1 (11729649_at) / RFU, ZNF638 /// ZNF638-IT1 / Fold change vs veh, ZNF638 /// ZNF638-IT1 / RFU, PANK3 / Fold change vs veh, PANK3 / RFU, SH3YL1 / Fold change vs veh, SH3YL1 / RFU, ZEB2 / Fold change vs veh, ZEB2 / RFU, NRIP1 / Fold change vs veh, NRIP1 / RFU, PTTG1IP / Fold change vs veh, PTTG1IP / RFU, CAPN2 / Fold change vs veh, CAPN2 / RFU, MED14 / Fold change vs veh, MED14 / RFU, SNORA58 / Fold change vs veh, SNORA58 / RFU, C1orf63 / Fold change vs veh, C1orf63 / RFU, LRRFIP1 / Fold change vs veh, LRRFIP1 / RFU, NDUFAF7 / Fold change vs veh, NDUFAF7 / RFU, SLC12A2 / Fold change vs veh, SLC12A2 / RFU, IBTK / Fold change vs veh, IBTK / RFU, ESF1 / Fold change vs veh, ESF1 / Fold change vs veh, TMEM50B / RFU, TAOK1 / Fold change vs veh, TAOK1 / RFU, ACBD3 / Fold change vs veh, ACBD3 / RFU, TMA16 / Fold change vs veh, TMA16 / RFU, RWDD3 / Fold change vs veh, RWDD3 / RFU, BCAT1 / Fold change vs veh, BCAT1 / RFU, EDEM3 / Fold change vs veh, EDEM3 / RFU, TMEM33 / Fold change vs veh, TMEM33 / RFU, WDR75 / Fold change vs veh, WDR75 / RFU, AHCTF1 / Fold change vs veh, AHCTF1 / RFU, TFRC / Fold change vs veh, TFRC / RFU, ZDHHC17 / Fold change vs veh, ZDHHC17 / RFU, NOM1 / Fold change vs veh, NOM1 / RFU, ARL8B / Fold change vs veh, ARL8B / RFU, ZBTB11 / Fold change vs veh, ZBTB11 / RFU, TAMM41 / Fold change vs veh, TAMM41 / RFU, KIAA1704 /// LOC100996395 / Fold change vs veh, KIAA1704 /// LOC100996395 / RFU, ING1 / Fold change vs veh, ING1 / RFU, TRMT61B / Fold change vs veh, TRMT61B / RFU, FUBP3 / Fold change vs veh, FUBP3 / RFU, TP53 / Fold change vs veh, TP53 / RFU, TNKS2 / Fold change vs veh, TNKS2 / RFU, ZFP14 / Fold change vs veh, ZFP14 / RFU, ACTR2 / Fold change vs veh, ACTR2 / RFU, PPP3R1 / Fold change vs veh, PPP3R1 / RFU, PIK3R1 / Fold change vs veh, PIK3R1 / RFU, HNRNPA1 / Fold change vs veh, HNRNPA1 / RFU, RNF170 / Fold change vs veh, RNF170 / RFU, ZNF28 / Fold change vs veh, ZNF28 / RFU, RNGTT / Fold change vs veh, RNGTT / RFU, OGT / Fold change vs veh, OGT / RFU, BRD1 / Fold change vs veh, BRD1 / RFU, MARS / Fold change vs veh, MARS / RFU, ZNF655 / Fold change vs veh, ZNF655 / RFU, FAHD1 / Fold change vs veh, FAHD1 / RFU, BDP1 / Fold change vs veh, BDP1 / RFU, LRRCC1 / Fold change vs veh, LRRCC1 / RFU, ARID1A / Fold change vs veh, ARID1A / RFU, ZNF146 / Fold change vs veh, ZNF146 / RFU, ZNF330 / Fold change vs veh, ZNF330 / RFU, GPN3 / Fold change vs veh, GPN3 / RFU, C9orf123 / Fold change vs veh, C9orf123 / RFU, N4BP2L2 / Fold change vs veh, N4BP2L2 / RFU, ARFIP1 / Fold change vs veh, ARFIP1 / RFU, FAM179B / Fold change vs veh, FAM179B / RFU, BCL10 / Fold change vs veh, BCL10 / RFU, UHRF1BP1L / Fold change vs veh, UHRF1BP1L / RFU, BET1 / Fold change vs veh, BET1 / RFU, CNOT2 / Fold change vs veh, CNOT2 / RFU, ZNF268 / Fold change vs veh, ZNF268 / Fold change vs veh, ZNF507 / RFU, DGCR2 / Fold change vs veh, DGCR2 / RFU, WDSUB1 / Fold change vs veh, WDSUB1 / Fold change vs veh, HSP90B1 /// MIR3652 / RFU, ADSS / Fold change vs veh, ADSS / RFU, GK / Fold change vs veh, GK / RFU, ZNF148 / Fold change vs veh, ZNF148 / RFU, TAF9 / Fold change vs veh, TAF9 / RFU, SLC1A5 / Fold change vs veh, SLC1A5 / RFU, SLMO2 / Fold change vs veh, SLMO2 / RFU, ABCC4 / Fold change vs veh, ABCC4 / RFU, LOC101060439 /// RAP1B / Fold change vs veh, LOC101060439 /// RAP1B / RFU, RFX7 / Fold change vs veh, RFX7 / RFU, GTPBP10 / Fold change vs veh, GTPBP10 / RFU, CNEP1R1 / Fold change vs veh, CNEP1R1 / RFU, BIVM-ERCC5 /// ERCC5 / Fold change vs veh, BIVM-ERCC5 /// ERCC5 / RFU, ILF3 / Fold change vs veh, ILF3 / RFU 11762660_at / Fold change /veh 11762660_at / RFU VCAN (11757783_s_at) / Fold change /veh VCAN (11757783_s_at) / RFU DDX43 (11728927_at) / Fold change /veh DDX43 (11728927_at) / RFU KRT8 (11758188_x_at) / Fold change /veh KRT8 (11758188_x_at) / RFU NKD1 (11759106_at) / Fold change /veh NKD1 (11759106_at) / RFU SRD5A1 (11742802_a_at) / Fold change /veh SRD5A1 (11742802_a_at) / RFU TPSAB1 /// TPSB2 (11721975_s_at) / Fold change /veh TPSAB1 /// TPSB2 (11721975_s_at) / RFU GSTM3 (11746129_a_at) / Fold change /veh GSTM3 (11746129_a_at) / RFU IL23R (11737362_x_at) / Fold change /veh IL23R (11737362_x_at) / RFU TMEM51 (11727254_a_at) / Fold change /veh TMEM51 (11727254_a_at) / RFU PIWIL2 (11732686_x_at) / Fold change /veh PIWIL2 (11732686_x_at) / RFU ORM1 (11744905_x_at) / Fold change /veh ORM1 (11744905_x_at) / RFU CCDC152 (11743942_at) / Fold change /veh CCDC152 (11743942_at) / RFU ECM1 (11717891_a_at) / Fold change /veh ECM1 (11717891_a_at) / RFU IL23R (11748794_a_at) / Fold change /veh IL23R (11748794_a_at) / RFU TNFAIP8L3 (11732012_x_at) / Fold change /veh TNFAIP8L3 (11732012_x_at) / RFU MBOAT4 (11741988_at) / Fold change /veh MBOAT4 (11741988_at) / RFU 11764193_at / Fold change /veh 11764193_at / RFU TMEM53 (11763286_at) / Fold change /veh TMEM53 (11763286_at) / RFU MAGEB2 (11727129_at) / Fold change /veh MAGEB2 (11727129_at) / RFU TMEM200A (11744735_a_at) / Fold change /veh TMEM200A (11744735_a_at) / RFU CCDC152 (11751479_a_at) / Fold change /veh CCDC152 (11751479_a_at) / RFU FAM211A (11726209_a_at) / Fold change /veh FAM211A (11726209_a_at) / RFU RGS16 (11746705_a_at) / Fold change /veh RGS16 (11746705_a_at) / RFU VCAN (11755009_s_at) / Fold change /veh VCAN (11755009_s_at) / RFU RHOB (11743442_s_at) / Fold change /veh RHOB (11743442_s_at) / RFU RGS16 (11720943_a_at) / Fold change /veh RGS16 (11720943_a_at) / RFU RGS16 (11720944_at) / Fold change /veh RGS16 (11720944_at) / RFU, VPS4B / Fold change vs veh, VPS4B / RFU, CREB1 / Fold change vs veh, CREB1 / RFU, DNAJC13 / Fold change vs veh, DNAJC13 / RFU, GNAQ / Fold change vs veh, GNAQ / RFU, CDK5R1 / Fold change vs veh, CDK5R1 / RFU, ZRANB3 / Fold change vs veh, ZRANB3 / RFU, CUL4A / Fold change vs veh, CUL4A / RFU, CCNY / Fold change vs veh, CCNY / RFU, UFL1 / Fold change vs veh, UFL1 / RFU, COG3 / Fold change vs veh, COG3 / RFU, DIAPH2 / Fold change vs veh, DIAPH2 / RFU, SKA2 / Fold change vs veh, SKA2 / RFU, AFF3 / Fold change vs veh, AFF3 / RFU, LMF1 / Fold change vs veh, LMF1 / RFU, IPO11 / Fold change vs veh, IPO11 / RFU, DFFB / Fold change vs veh, DFFB / RFU, FOXP1 / Fold change vs veh, FOXP1 / RFU, CARD8 / Fold change vs veh, CARD8 / RFU, STRN3 / Fold change vs veh, STRN3 / RFU, ADK / Fold change vs veh, ADK / RFU, RASSF2 / Fold change vs veh, RASSF2 / RFU, WIPF1 / Fold change vs veh, WIPF1 / RFU, LARP1B / Fold change vs veh, LARP1B / RFU, RASA1 / Fold change vs veh, RASA1 / RFU, RB1 / Fold change vs veh, RB1 / RFU, PPFIA1 / Fold change vs veh, PPFIA1 / RFU, MAT2A / Fold change vs veh, MAT2A / RFU, CCT5 / Fold change vs veh, CCT5 / RFU, WDR92 / Fold change vs veh, WDR92 / RFU, CUX1 / Fold change vs veh, CUX1 / RFU, TTC7A / Fold change vs veh, TTC7A / RFU, TMEM135 / Fold change vs veh, TMEM135 / RFU, DEPTOR / Fold change vs veh, DEPTOR / RFU, CPM / Fold change vs veh, CPM / RFU, DNAJB6 / Fold change vs veh, DNAJB6 / RFU, CACNA2D3 / Fold change vs veh, CACNA2D3 / RFU, DTX4 / Fold change vs veh, DTX4 / RFU, TFCP2 / Fold change vs veh, TFCP2 / RFU, GMCL1 /// GMCL1P1 / Fold change vs veh, GMCL1 /// GMCL1P1 / RFU, AEBP2 / Fold change vs veh, AEBP2 / RFU, SNHG1 /// SNORD22 /// SNORD25 /// SNORD26 /// SNORD27 /// SNORD28 /// SNORD29 /// SNORD31 / Fold change vs veh, SNHG1 /// SNORD22 /// SNORD25 /// SNORD26 /// SNORD27 /// SNORD28 /// SNORD29 /// SNORD31 / Fold change (Aza/veh), C12orf56 (ProbeSet 11735607_a_at) / Fold change (ACY-1035/veh), C12orf56 (ProbeSet 11735607_a_at) / Fold change (Aza/veh), FGFR1OP (ProbeSet 11751329_s_at) / Fold change (ACY-1035/veh), FGFR1OP (ProbeSet 11751329_s_at) / Fold change (Aza/veh), VPS36 (ProbeSet 11739960_a_at) / Fold change (ACY-1035/veh), VPS36 (ProbeSet 11739960_a_at) / RFU SYPL1 (11715823_x_at) / Fold change /veh SYPL1 (11715823_x_at) / RFU IGFBP7 (11715501_s_at) / Fold change /veh IGFBP7 (11715501_s_at) / RFU REEP3 (11722064_at) / Fold change /veh REEP3 (11722064_at) / RFU IGLL1 (11728026_x_at) / Fold change /veh IGLL1 (11728026_x_at): dose or concentration left out as unconfirmed
Conditions: ProbeSet 11756954_s_at; LIST B

Nc1ccc(-c2cccs2)cc1NC(=O)c1ccc2c(c1)cc(C1CC1)n2CCN1CCOCC1 [ACY-1035]
Fold change vs veh, ZEB2: 0.85
